Data set [1] addresses T1, ABCB1 (Homo sapiens, UniProt P08183).
T1 construct: ABCB1-overexpressing SW620V cells; endogenous in cells; host or cells: SW620V (vincristine-resistant variant of SW620, developed in the authors' laboratory by drug selection)
As to the kind of experiment: Calcein accumulation transport assay in SW620V cells. Format: cell-based. The following applies: 10 µM compound; for increase of intracellular retention of calcein: ABCB1, SW620V cells; for inhibition of ABCB1 activity (calcein accumulation assay): SW620V cells, n = 3. From the text: To confirm the hypothesis of direct interaction between putative ABC protein inhibitors and transporter molecules, we conducted a series of experiments based on fluorescent probe transport as described previously. None of the compounds affected 2′,7′-bis(2-carboxyethyl)-5-(and-6)-carboxyfluorescein (BCECF) efflux out of SW620M cells, indicating the lack of interaction between the putative inhibitors and ABCC1 (Figure A). […] As anticipated, none of the newly synthesized compounds affected dye accumulation in drug-sensitive SW620 cells (data not shown).
SW620 cells and their drug-resistant variants overexpressing ABCB1 (SW620V), ABCC1 (SW620M), or ABCG2 (SW620Mito) were trypsinized and suspended in a complete cell - culture medium prewarmed to 37°C at a final density of approximately 1 × 10^6/mL. The tested compounds were added from DMSO stock solutions to a final concentration of 10 µM.
Respective samples were supplemented with a specific fluorescent marker (100 nM calcein AM for ABCB1, 100 nM BCECF AM for ABCC1, and 1 µM pheophorbide A for A BCG2). For the control, given protein-specific inhibitors (10 µM verapamil for ABCB1, 25 µM MK-571 for ABCC1, and 10 µM Ko143 for ABCG2) were added to parallel, tested compound-free, samples. For ABCB1 and ABCG2 assays (dye accumulation assays), intracellular fluorescence was measured by flow cytometry (FACSymphony A1, Becton, Dickinson and Company, New Jersey, USA) immediately after dye addition (time 0) and every 3–5 min up to approximately 30 min using a flow cytometer set at 488 nm excitation and 530/30 nm emission for the calcein/ABCB1 assay and 400 nm excitation and 655/8 nm emission for the pheophorbide A/ABCG2 assay. For the BCECF/ABCC1 assay (dye exclusion assay), the sample was preincubated at 37°C for 10 min, centrifuged (400 × g, 10 min, RT), and then resuspended in fresh medium. The intracellular BCECF concentration was then immediately measured at 488 nm excitation and 530/30 nm emission (time 0). Further measurements were performed at 15 - min intervals. All samples were incubated at 37°C between measurements. The accumulation/exclusion curves were plotted, and the slope of the initial accumulation rate or dye retention half time was evaluated using the GraphPad Prism software version 10 (GraphPad Software, Boston, Massachusetts USA). The difference between the a ccumulation rate/half time value for dye only and the tested compound/inhibitor samples was expressed as a given protein activity measure.

The nature of data set [2]: Neutral red uptake viability assay, SW620D. Format: cell-based, human. The settings on record: human, SW620D cells (doxorubicin-resistant), 72 h, n = 3, read-out: Cytotoxic activity IC50 (95% CI).
Data set [3] is described as follows: Neutral red uptake viability assay, SW620M. Type of data set: cell-based, human. The following applies: human, SW620M cells (methotrexate-resistant), 72 h, n = 3, read-out: Cytotoxic activity IC50 (95% CI).
Data set [4] is described as follows: Neutral red uptake viability assay, SW620Mito. Type of data set: cell-based, human. The settings on record: human, SW620Mito cells (mitoxantrone-resistant), 72 h, n = 3, read-out: Cytotoxic activity IC50 (95% CI).

“Also recorded” adds a separate entry of the source.

Broadly, the IC50 is the midpoint of a concentration-inhibition curve.

T1 sequence (P08183 whole entry): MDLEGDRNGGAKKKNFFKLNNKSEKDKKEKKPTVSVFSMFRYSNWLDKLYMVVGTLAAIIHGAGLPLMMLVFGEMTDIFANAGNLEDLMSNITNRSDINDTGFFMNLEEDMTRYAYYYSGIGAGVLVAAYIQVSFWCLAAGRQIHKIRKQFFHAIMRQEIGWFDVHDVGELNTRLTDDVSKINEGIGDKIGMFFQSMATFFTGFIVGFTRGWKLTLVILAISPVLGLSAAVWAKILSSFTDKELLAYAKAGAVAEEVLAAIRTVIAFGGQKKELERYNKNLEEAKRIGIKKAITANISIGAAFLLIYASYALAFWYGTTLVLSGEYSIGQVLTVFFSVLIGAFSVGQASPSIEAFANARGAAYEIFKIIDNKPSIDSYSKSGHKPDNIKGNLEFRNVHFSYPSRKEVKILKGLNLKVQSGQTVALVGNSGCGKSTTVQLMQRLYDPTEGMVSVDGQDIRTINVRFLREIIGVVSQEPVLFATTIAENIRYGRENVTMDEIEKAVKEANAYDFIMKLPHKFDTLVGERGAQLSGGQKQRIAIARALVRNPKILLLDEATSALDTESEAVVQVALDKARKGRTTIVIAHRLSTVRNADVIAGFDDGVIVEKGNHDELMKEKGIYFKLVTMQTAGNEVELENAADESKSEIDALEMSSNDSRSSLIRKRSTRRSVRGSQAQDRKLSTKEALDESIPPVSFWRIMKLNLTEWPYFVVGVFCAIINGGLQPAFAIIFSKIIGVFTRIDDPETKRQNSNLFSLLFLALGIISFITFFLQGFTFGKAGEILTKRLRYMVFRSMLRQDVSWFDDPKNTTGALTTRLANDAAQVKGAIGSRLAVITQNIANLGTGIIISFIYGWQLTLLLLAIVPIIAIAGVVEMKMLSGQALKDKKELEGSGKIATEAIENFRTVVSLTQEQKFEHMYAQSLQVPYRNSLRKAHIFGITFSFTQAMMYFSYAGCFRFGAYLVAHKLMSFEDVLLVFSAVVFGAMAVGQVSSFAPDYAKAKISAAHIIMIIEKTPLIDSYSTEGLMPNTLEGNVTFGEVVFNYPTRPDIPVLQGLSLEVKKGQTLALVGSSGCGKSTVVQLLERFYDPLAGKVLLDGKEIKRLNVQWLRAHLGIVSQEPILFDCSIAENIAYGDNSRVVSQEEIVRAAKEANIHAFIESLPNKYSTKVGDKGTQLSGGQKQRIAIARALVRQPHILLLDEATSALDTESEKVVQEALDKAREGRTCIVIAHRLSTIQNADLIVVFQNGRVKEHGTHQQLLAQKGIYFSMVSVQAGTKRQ

Take `O=C1N/C(=C\c2ccc(-[c-]3cccc3)cc2)C(=O)N2CCC[C@@H]12.[Fe+2].c1cc[cH-]c1` [(S,Z)-4d]: in data set [1], the “increase of intracellular retention of calcein” value is given as “up to 3.4 fold” and the “inhibition of ABCB1 activity (calcein accumulation assay)” value is listed as “efficiently inhibited ABCB1 activity; also recorded: inhibit calcein efflux”.

As to `O=C1N/C(=C\c2ccccc2-[c-]2cccc2)C(=O)N2CCC[C@@H]12.[Fe+2].c1cc[cH-]c1` [(S,Z)-4b], in data set [1], the “increase of intracellular retention of calcein” value is recorded as “up to 3.4 fold” and the “inhibition of ABCB1 activity (calcein accumulation assay)” value is “efficiently inhibited ABCB1 activity; also recorded: inhibit calcein efflux”.

For `O=C1N/C(=C\c2ccccc2)C(=O)N2CCC[C@@H]12` [(S,Z)-4e], the half-maximal inhibitory concentration (IC50) at 72 h in data set [2], in data set [3] and in data set [4] was greater than 100 µM in each case.

As for `O=C1N/C(=C/c2ccccc2)C(=O)N2CCC[C@@H]12` [(S,E)-4e], the IC50 at 72 h in data set [2], in data set [3] and in data set [4] was greater than 100 µM throughout.

The values above are taken from paper PMC12257394, “Design, Synthesis, and Biological Evaluation of Ferrocenyl–Cyclo-(Gly‑L‑Pro) Hybrids Sensitizing Multidrug-Resistant Cancer Cells to Anticancer Agents” (ACS Medicinal Chemistry Letters, 2025).
